Source: ChEMBL document CHEMBL1201862, “PubChem BioAssay data set” (2004)
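Cultured in 96-well plates, cells were exposed to test compound for 48 hours across five concentrations. The concentration for 50% growth inhibition is given as GI50.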 Activity calls are given as the source filed them. Rule as the data show it: active = GI50 up to about 1.1 µM and inactive = higher.

Tests used:
Assay in all cases: NCI-60 cell line screen, 48 h
A498 = system: A498
CAKI-1 = system: CAKI-1
EKVX = system: EKVX
HCC 2998 = system: HCC 2998
KM12 = system: KM12
LOX IMVI = system: LOX IMVI
NCI-H226 = system: NCI-H226
NCI-H460 = system: NCI-H460
OVCAR-4 = system: OVCAR-4
RXF 393 = system: RXF 393
SF-268 = system: SF-268
SNB-19 = system: SNB-19
SNB-75 = system: SNB-75

Measured: GI50

C[N+](C)(C)CC(=O)N/N=C(/C=C/c1ccccc1)CC1OC(=O)c2ccccc21 (stereo not drawn)
inactive: A498 > 100 µM | CAKI-1 > 100 µM | EKVX > 100 µM | HCC 2998 > 100 µM | KM12 > 100 µM | LOX IMVI > 10 µM | NCI-H226 > 100 µM | NCI-H460 > 100 µM | OVCAR-4 > 100 µM | RXF 393 > 100 µM | SF-268 > 100 µM | SNB-19 > 100 µM | SNB-75 > 100 µM

COC(=O)CCC(=O)CC(=O)C(=O)Nc1c(Cl)cc([N+](=O)[O-])cc1Cl
inactive: A498 57.3 µM | CAKI-1 61.8 µM | EKVX 51.8 µM | HCC 2998 > 100 µM | KM12 > 100 µM | LOX IMVI 52.1 µM | NCI-H226 > 100 µM | NCI-H460 > 100 µM | OVCAR-4 > 100 µM | RXF 393 > 100 µM | SF-268 > 100 µM | SNB-19 > 100 µM | SNB-75 47.2 µM

CCOc1ccc(NC(=O)CC2C(=O)Nc3ccccc3[S+]2[O-])cc1 (stereo not drawn)
inactive: A498 > 64 µM | CAKI-1 > 67 µM | EKVX > 46.5 µM | HCC 2998 > 64.7 µM | KM12 > 100 µM | LOX IMVI > 100 µM | NCI-H226 > 64.7 µM | NCI-H460 > 80.4 µM | OVCAR-4 > 57.1 µM | RXF 393 37.8 µM | SF-268 49.7 µM | SNB-19 59.6 µM | SNB-75 20.1 µM

COc1c(OC2OC(CO)C(O)C(O)C2O)cc2c(c1OC)-c1ccc(OC)c(=O)cc1[C@@H](NC(C)=O)CC2 (stereo partly drawn)
inactive: A498 > 100 µM | CAKI-1 > 100 µM | EKVX > 100 µM | HCC 2998 > 93.3 µM | KM12 92.7 µM | LOX IMVI > 100 µM | NCI-H226 > 100 µM | NCI-H460 > 100 µM | OVCAR-4 > 100 µM | RXF 393 57.4 µM | SF-268 > 56.2 µM | SNB-19 > 100 µM | SNB-75 25.8 µM

O=c1c(-c2ccccc2)c2oc(c1-c1ccccc1)CSCc1cccc(c1)CSC2
inactive: A498 21.8 µM | CAKI-1 34.2 µM | EKVX 42.1 µM | HCC 2998 94.6 µM | KM12 60.3 µM | LOX IMVI 32.9 µM | NCI-H226 56.4 µM | NCI-H460 38.7 µM | OVCAR-4 51.9 µM | RXF 393 14.5 µM | SF-268 30.5 µM | SNB-19 33 µM | SNB-75 15.3 µM

O=C1C(N2C(=O)c3ccccc3C2=O)CN1C(COCc1ccccc1)c1ccc(OCc2ccccc2)cc1 (stereo not drawn)
inactive: A498 > 100 µM | CAKI-1 > 100 µM | EKVX > 100 µM | HCC 2998 > 100 µM | KM12 > 100 µM | LOX IMVI > 100 µM | NCI-H226 > 100 µM | NCI-H460 > 100 µM | OVCAR-4 > 100 µM | RXF 393 > 100 µM | SF-268 > 100 µM | SNB-19 > 100 µM | SNB-75 > 100 µM
